According to patent publication US20190314377A1, “TREATMENT OF HEMATOLOGICAL MALIGNANCY WITH SMALL MOLECULE NF-KB INHIBITORS” (MEMORIAL SLOAN-KETTERING CANCER CENTER, priority 2016, published 2019):

Tests used:
[1] = tested on: Nrf2 transcriptional activity; assay: HepG2/Luciferase/Nrf2-ARE transcriptional reporter assay; assay type: cell-based; details: tert-butylhydroquinone treated; 12 hours; 1, 3, 6 and 10 μM
Protocol: (§1) Jurkat/GFP/NF-κB transcriptional reporter cells were stimulated with TNF-α, Jurkat/Luciferase/NFAT transcriptional reporter cells were stimulated with PMA/ionomycin, and HepG2/Luciferase/Nrf2-Antioxidant response element (ARE) transcriptional reporter cells were treated with tert-butylhydroquinone. The respective cell lines were incubated for 12 hours in the presence of empty vehicle or 1, 3, 6 and 10 μM of IT-848 or IT-878. NF-κB transcriptional activity was analyzed by flow cytometry, NFAT and Nrf2 transcriptional activities were analyzed by luminescence measurement. Mean and SEM of relative fluorescent or luminescent intensities are presented.
(§2) A NF-κB/Jurkat/GFP transcription reporter cell line was purchased from System Biosciences. NFAT/Jurkat/Luciferase transcriptional reporter cells were generated at Memorial Sloan-Kettering Cancer Center. HepG2/ARE/Luciferase Nrf2 transcriptional reporter cells were purchased from BPS biosciences.

[2] = tested on: NFAT transcriptional activity; assay: Jurkat/Luciferase/NFAT transcriptional reporter assay; assay type: cell-based; details: PMA/ionomycin stimulated; 12 hours; 1, 3, 6 and 10 μM
Protocol: as §1, §2

[3] = tested on: human peripheral blood mononuclear cells (PBMC); assay: Toxicity to healthy cells (DAPI viability, MTS metabolic activity), human PBMC; assay type: cell-based; details: 24 hours, 1, 3, 6 and 10 μM
Protocol: (§3) Mouse splenocytes and human peripheral blood mononuclear cells (PBMC) were incubated for 24 hours in the presence of empty vehicle or 1, 3, 6 and 10 μM of IT-848 or IT-878. Viability (percentage of DAPI-negative cells) was analyzed by flow cytometry and metabolic activity was analyzed by MTS assay. Mean and SEM of relative viability or metabolic activity are presented.
(§4) Human peripheral blood mononuclear cells (PBMC) were purified from donor blood according to accepted protocols. Mouse splenocytes were purified from mouse spleen using methods known to those skilled in the art.

mouse splenocytes [4] = assay: Toxicity to healthy cells (DAPI viability, MTS metabolic activity), mouse splenocytes; assay type: cell-based; details: 24 hours, 1, 3, 6 and 10 μM
Protocol: as §3, §4

[5] = tested on: NF-κB transcriptional activity; assay: Jurkat/GFP/NF-κB transcriptional reporter assay; assay type: cell-based; details: 12 hours; 1, 3, 6 and 10 μM
Protocol: Jurkat/GFP/NF-κB transcriptional reporter cells were stimulated with TNF-α and incubated for 8 and 22 hours in the presence of empty vehicle or 1, 3 and 6 μM of IT-848 or IT-878. NF-κB transcriptional activity (GFP mean fluorescence intensity) was analyzed by flow cytometry. Mean and SEM of relative fluorescent intensities are presented.
as §1, §2

[6] = tested on: MM.1S multiple myeloma cells; assay: MTS cell proliferation assay, MM.1S; assay type: cell-based, human; details: 2, 4 and 6 μM, 24 and 48 hours
Protocol: MM.1S human multiple myeloma cells were incubated for 48 hours in the presence of empty vehicle or 2, 4 and 6 μM of IT-848, IT-878, PS-1145, or ibrutinib, Cell proliferation was analyzed after 24 and 48 hours by MTS assay. Mean and SEM or relative cell growth are presented.
(§5) TDM8, Ly19, L363, SUDHL4, MM.1S or U266 cells were independently incubated for up to 48 hours in the presence of empty vehicle, IT-compound (2, 4, 6 μM), PS-1145 (2, 4 and 6 μM), or ibrutinib (2, 4 and 6 μM). Cell growth was measured indirectly after 24 and 48 hours by CellTiter 96 Aqueous Non-Radioactive Cell Proliferation Assay (Promega, Madison, Wis.) per manufacturer's instructions. Briefly, tetrazolium compound [-(4,5-dimethylthiazol-2-yl)-5-(3-carboxymethoxyphenyl)-2-(4-sulfophenyl)-2H-tetrazolium, inner salt; MTS] was added to the culture media and the conversion of MTS into formazon was measured by the amount of 490 nm absorbance. The number of viable cells correlates with absorbance at 490 nm. The results are shown in FIGS. 5A-D. Mean and SEM of relative cell growth are presented.

MM.1S and U266 cells = assay: ROS levels by DCFDA assay in multiple myeloma cells; assay type: cell-based, human
Protocol: (§6) MM.1S cells, U266 cells or mouse splenocytes were cultured in the presence of empty vehicle or serial dilutions of IT-848. ROS levels were quantified after 4 hours and 24 hours by DCFDA assay.
(§7) Cells were treated in vitro with IT-848 (compound of Formula I), IT-878 (compound of Formula II) or vehicle solution. Reactive oxygen species (ROS) levels were analyzed by cell labelling with 2′, 7′-dichlorofluorescein diacetate (DCFDA) using a Cellular Reactive Oxygen Species Detection Assay Kit (Abcam, Cambridge, Mass.) ROS levels were analyzed by quantifying the fluorogenic marker DCFDA using flow cytometery (LSR II, BD Bioscience, San Jose, Calif.).

HBL1 cells = assay: MTS assay, combination with Bortezomib in HBL1 cells; assay type: cell-based, human; details: IT-848 4 μM + Bortezomib 0.02 μM; 24 and 48 hours
Protocol: HBL1 human DLBCL cells were incubated for 48 hours in the presence of empty vehicle, IT-848 (4 μM), Bortezomib (0.02 μM), or a combination of IT-848 and Bortezomib. Cell proliferation was analyzed after 24 and 48 hours by MTS assay. Mean and SEM of relative cell growth are presented.

interleukin 6 (IL-6) = assay: IL-6 secretion by ELISA in DLBCL and MM cell lines; assay type: cell-based, human; details: TMD8, HBL1 and U266 cells; 4 and 6 μM; 12 and 24 hours
Protocol: TMD8, HBL1 and U266 cells were incubated for 24 hours in the presence of empty vehicle or IT-848 (4 and 6 μM). IL-6 concentrations in the culture media were analyzed after 12 and 24 hours by ELISA. Mean and SEM of relative IL-6 levels (percentage of vehicle) are presented.

[7] = tested on: U266 multiple myeloma cells; assay: MTS cell proliferation assay, U266; assay type: cell-based, human; details: 2, 4 and 6 μM, 24 and 48 hours
Protocol: U266 human multiple myeloma cells were incubated for 48 hours in the presence of empty vehicle or 2, 4 and 6 μM of IT-848, IT-878, PS-1145, or ibrutinib, Cell proliferation was analyzed after 24 and 48 hours by MTS assay. Mean and SEM or relative cell growth are presented.
as §5

mouse splenocytes [8] = assay: ROS levels by DCFDA assay in mouse splenocytes; assay type: cell-based
Protocol: as §6, §7

[9] = tested on: luciferase-expressing MM.1S cells; assay: MM.1S xenograft model of multiple myeloma in NSG mice; assay type: in vivo, mouse; details: IT-848 10 mg/kg i.p. M/W/F x 4 weeks; Bortezomib 0.5 mg/kg i.p. M/T x 4 weeks
Protocol: NSG mice received 2.5×10^6 luciferase-expressing MM.1S cells intravenously. After 10 days engraftment was confirmed and mice were assigned to four groups: empty vehicle i.p. M/W/F×4 weeks; Bortezomib 0.5 mg/kg i.p. M/T×4 weeks; IT-848 10 mg/kg i.p. M/W/F×4 weeks; Bortezomib M/T+IT-848 M/W/F×4 weeks. A. Tumor growth was analyzed by in vivo bioluminescence imaging. B. Mean and SEM of bioluminescence intensities are presented. N=7-10 The area under the curve (AUC) was used to summarize the bioluminescence intensity for each subject and a permutation test was performed to determine if there was a difference in the AUCs between groups. P values are as follows: Group 1 vs. 2: 0.008; Group 2 vs. 3: 0.032; Group 1 vs 3: <0.001; Group 2 vs 4: <0.001; Group 1 vs 4: <0.001; Group 3 vs 4: 0.029.
In tumor xenograft experiments the bioluminescent signal intensity (BLI) of tumor bearing mice was determined weekly. […] The cause of death (tumor versus toxicity) was determined based on the presence of hind leg paralysis. Death in the absence of hind leg paralysis was attributed to toxicity.
Efficacy studies of IT-848 combined with drugs that are currently used clinically to treat B cell malignancies were also performed. […] Moreover, IT-848 was efficacious in a xenograft model of MM (FIGS. 14, 15A and 15B) and enhanced the efficacy of bortezomib (FIGS. 15A and 15B). Immunodeficient mice received bioluminescent MM.1S cells intravenously and bone marrow engraftment was confirmed by in vivo bioluminescence imaging (BLI) after ten days. Mice were assigned to three treatment groups (IT-848 single agent, bortezomib single agent, combination of IT-848 and bortezomib) and a control group (empty vehicle IP). Onset of hind leg paralysis, which is the clinical endpoint of progressive disease in this model, was delayed in all three treatment groups (FIG. 9).

[10] = tested on: SUDHL4 B cell lymphoma cells; assay: MTS cell proliferation assay, SUDHL4; assay type: cell-based, human; details: 2, 4 and 6 μM, 24 and 48 hours
Protocol: SUDHL4 human DLBCL cells were incubated for 48 hours in the presence of empty vehicle or 2, 4 and 6 μM of IT-848, IT-878, PS-1145, or ibrutinib, Cell proliferation was analyzed after 24 and 48 hours by MTS assay. Mean and SEM or relative cell growth are presented.
as §5

[11] = Pharmacokinetics, plasma or whole blood levels by LC-MS/MS; assay type: in vivo; details: 5-10 mg/kg PO, IP or IV; in particular after IP or oral administration
Protocol: Plasma or whole blood samples were analyzed at several time points after intraperitoneal, intravenous or oral administration of 5-10 mg/kg of IT-848. Samples were analyzed by liquid chromatography-tandem mass spectrometry (LC-MS/MS). IT-848 is cleared slowly after systemic administration.

interleukin 10 (IL-10) = assay: IL-10 secretion by ELISA in DLBCL and MM cell lines; assay type: cell-based, human; details: TMD8, HBL1 and U266 cells; 4 and 6 μM; 12 and 24 hours
Protocol: TMD8, HBL1 and U266 cells were incubated for 24 hours in the presence of empty vehicle or IT-848 (4 and 6 μM). IL-10 concentrations in the culture media were analyzed after 12 and 24 hours by ELISA. Mean and SEM of relative IL-10 levels (percentage of vehicle) are presented.

TMD8 cells = assay: MTS assay, combination with Panobinostat in TMD8 cells; assay type: cell-based, human; details: IT-848 4 μM + Panobinostat 0.1 μM; 24 and 48 hours
Protocol: TMD8 and DLBCL cells were incubated for 48 hours in the presence of empty vehicle, IT-848 (4 μM), Panobinostat (0.1 μM), or a combination of IT-848 and Panobinaostat. Cell proliferation was analyzed after 24 and 48 hours by MTS assay. Mean and SEM of relative cell growth are presented.

[12] = tested on: TMD8 B cell lymphoma cells; assay: MTS cell proliferation assay, TMD8; assay type: cell-based, human; details: 2, 4 and 6 μM, 24 and 48 hours
Protocol: TMD8 human DLBCL cells were incubated for 48 hours in the presence of empty vehicle or 2, 4 and 6 μM of IT-848, IT-878, PS-1145, or ibrutinib, Cell proliferation was analyzed after 24 and 48 hours by MTS assay. Mean and SEM or relative cell growth are presented.
as §5

| SMILES | effect on Nrf2 transcriptional activity [1] | effect on NFAT transcriptional activity [2] | viability and metabolic activity of healthy cells [3] | viability and metabolic activity of healthy cells (mouse splenocytes [4]) | specificity of inhibition of transcriptional activity [5] | cell growth (MTS) [6] | ROS levels (MM.1S and U266 cells; after 24 hours) | ROS levels (MM.1S and U266 cells; after four hours) | effect on activity of Bortezomib (cell growth, MTS) (HBL1 cells) | secretion of IL-6 (interleukin 6 (IL-6)) | cell growth (MTS) [7] | ROS levels (mouse splenocytes [8]; after 4 hours) | ROS levels (mouse splenocytes [8]; after 24 hours) | onset of hind leg paralysis [9] | tumor growth by in vivo bioluminescence imaging (BLI) [9] | cell growth (MTS) [10] | clearance [11] | secretion of IL-10 (interleukin 10 (IL-10)) | effect on activity of Panobinostat (cell growth, MTS) (TMD8 cells) | cell growth (MTS) [12] |
| --- | --- | --- | --- | --- | --- | --- | --- | --- | --- | --- | --- | --- | --- | --- | --- | --- | --- | --- | --- | --- |
| COCCCCOc1ccc2cc3c(=O)[nH]c(=O)nc-3oc2c1Cl [IT-878, 9-chloro-8-(4-methoxybutoxy)-2H-chromeno[2,3-d]pyrimidine-2,4(3H)-dione] | spared | spared | acceptable level of compromise | acceptable level of compromise | specific to NF-kB |  |  |  |  |  |  |  |  |  |  |  |  |  |  |  |
| CCCCCCOc1ccc2cc3c(=O)[nH]c(=O)nc-3oc2c1Cl [IT-848, 9-chloro-8-(hexyloxy)-2H-chromeno[2,3-d]pyrimidine-2,4(3H)-dione] | spared | spared | acceptable level of compromise | acceptable level of compromise | specific to NF-kB | inhibits growth | decreased levels | unchanged or increased levels | enhances the activity | decreased | inhibits growth | did not alter levels | small increase | delayed | efficacious | inhibits growth | slow | decreased | enhances the activity | inhibits growth |
| CC(C)C[C@H](NC(=O)[C@H](Cc1ccccc1)NC(=O)c1cnccn1)B(O)O [bortezomib, reference compound] |  |  |  |  |  |  |  |  |  |  |  |  |  | delayed | efficacious |  |  |  |  |  |
